Data: PubChem BioAssay AID330 (DTP/NCI, 2004)
“And” between values parts separate entries of the source, which are not always exact repeats. Identical values can stand only once. Toxic doses and inconclusive results are not listed.

Tested on: P388 leukemia ip, CD2F1 mice, survival T/C
Experiment: NCI In Vivo Anticancer Drug Screen. Data for tumor model P388 Leukemia (intraperitoneal) in CD2F1 (CDF1) mice
Conditions: endpoint: median survival time, higher = longer survival
Outline: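 Mice carrying the transplanted tumor received test compound or vehicle. Survival was recorded in each group, and the value is the treated-group measurement divided by that of the vehicle-treated control group.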

[1] = dose: 6.25 mg/kg/injection, schedule: Q01DX009 (ip), vehicle: saline
[2] = dose: 12.5 mg/kg/injection, schedule: Q01DX009 (ip), vehicle: saline
[3] = dose: 25.0 mg/kg/injection, schedule: Q01DX009 (ip), vehicle: saline
[4] = dose: 50.0 mg/kg/injection, schedule: Q01DX009 (ip), vehicle: saline
[5] = dose: 12.5 mg/kg/injection, schedule: Q01DX009 (ip), vehicle: saline with Tween-80
[6] = dose: 100.0 mg/kg/injection, schedule: Q01DX009 (ip), vehicle: saline with Tween-80
[7] = dose: 50.0 mg/kg/injection, schedule: Q01DX005 (ip), vehicle: Klucel (hydroxypropylcellulose) (HPC)
[8] = dose: 100.0 mg/kg/injection, schedule: Q01DX005 (ip), vehicle: Klucel (hydroxypropylcellulose) (HPC)
[9] = dose: 50.0 mg/kg/injection, schedule: Q01DX005 (ip), vehicle: saline with Tween-80
[10] = dose: 100.0 mg/kg/injection, schedule: Q01DX005 (ip), vehicle: saline with Tween-80
[11] = dose: 200.0 mg/kg/injection, schedule: Q01DX005 (ip), vehicle: saline with Tween-80

CCOC(=O)CC1(O)C=C(C)C(=O)C(C)=C1
T/C (dose: 3.13 mg/kg/injection, schedule: Q01DX009 (ip), vehicle: distilled water + Tween-80): 100 % of control | T/C (dose: 6.25 mg/kg/injection, schedule: Q01DX009 (ip), vehicle: distilled water + Tween-80): 109 % of control | T/C (dose: 12.5 mg/kg/injection, schedule: Q01DX009 (ip), vehicle: distilled water + Tween-80): 103 % of control | T/C (dose: 25.0 mg/kg/injection, schedule: Q01DX009 (ip), vehicle: distilled water + Tween-80): 98 % of control | T/C (dose: 50.0 mg/kg/injection, schedule: Q01DX009 (ip), vehicle: distilled water + Tween-80): 107 % of control | T/C (dose: 100.0 mg/kg/injection, schedule: Q01DX009 (ip), vehicle: distilled water + Tween-80): 99 % of control | T/C (dose: 200.0 mg/kg/injection, schedule: Q01DX009 (ip), vehicle: distilled water + Tween-80): 112 % of control | T/C (dose: 400.0 mg/kg/injection, schedule: Q01DX009 (ip), vehicle: distilled water + Tween-80): 108 % of control

CC12CN3CC(C)(C1=O)C(=O)C(C)(C3)C2=O
T/C (dose: 60.0 mg/kg/injection, schedule: Q01DX005 (ip), vehicle: saline): 94 % of control | T/C (dose: 120.0 mg/kg/injection, schedule: Q01DX005 (ip), vehicle: saline): 92 % of control | T/C (dose: 240.0 mg/kg/injection, schedule: Q01DX005 (ip), vehicle: saline): 94 % of control

Cc1cc(=O)c(C#N)c(C)s1
T/C (dose: 100.0 mg/kg/injection, schedule: Q04DX002 (ip), vehicle: saline with Tween-80): 107 % of control | T/C (dose: 200.0 mg/kg/injection, schedule: Q04DX002 (ip), vehicle: saline with Tween-80): 100 % of control | T/C (dose: 400.0 mg/kg/injection, schedule: Q04DX002 (ip), vehicle: saline with Tween-80): 110 % of control

CCn1c2ccccc2c2c3c(NCCCN(C)C)cc(C)nc3ccc21
T/C (dose: 5.5 mg/kg/injection, schedule: Q01DX009 (ip), vehicle: suspension in saline): 93 % of control | T/C (dose: 11.0 mg/kg/injection, schedule: Q01DX009 (ip), vehicle: suspension in saline): 97 % of control | T/C (dose: 22.0 mg/kg/injection, schedule: Q01DX009 (ip), vehicle: suspension in saline): 97 % of control

CCCCCCCCCCCC[N+]1(CC)CCCC1
T/C (dose: 1.56 mg/kg/injection, schedule: Q01DX009 (ip), vehicle: saline): 100 % of control | T/C (dose: 3.12 mg/kg/injection, schedule: Q01DX009 (ip), vehicle: saline): 98 % of control and 92 % of control | T/C [1]: 86 % of control

CCC12CCCN3CCc4c(n(c5ccc(Br)cc45)C(=O)/C(=N\O)C1)C32 (configuration not stated)
T/C (dose: 60.0 mg/kg/injection, schedule: Q01DX005 (ip), vehicle: saline with Tween-80): 101 % of control | T/C (dose: 120.0 mg/kg/injection, schedule: Q01DX005 (ip), vehicle: saline with Tween-80): 97 % of control | T/C (dose: 240.0 mg/kg/injection, schedule: Q01DX005 (ip), vehicle: saline with Tween-80): 97 % of control

Cc1cc(OC(=O)Nc2ccc(C(C)C)cc2)c(C)cc1Br
T/C [1]: 89 % of control | T/C [2]: 92 % of control | T/C [3]: 98 % of control | T/C (dose: 100.0 mg/kg/injection, schedule: Q01DX009 (ip), vehicle: saline + alcohol): 98 % of control | T/C (dose: 200.0 mg/kg/injection, schedule: Q01DX009 (ip), vehicle: saline + alcohol): 110 % of control

COc1cc2c(c3oc4c(O)cccc4c(=O)c13)CC(C(C)(O)CO)O2 (configuration not stated)
T/C (dose: 3.5 mg/kg/injection, schedule: Q01DX005 (ip), vehicle: Klucel (hydroxypropylcellulose) (HPC)): 105 % of control | T/C (dose: 7.0 mg/kg/injection, schedule: Q01DX005 (ip), vehicle: Klucel (hydroxypropylcellulose) (HPC)): 96 % of control | T/C (dose: 14.0 mg/kg/injection, schedule: Q01DX005 (ip), vehicle: Klucel (hydroxypropylcellulose) (HPC)): 96 % of control | T/C (dose: 28.0 mg/kg/injection, schedule: Q01DX005 (ip), vehicle: Klucel (hydroxypropylcellulose) (HPC)): 92 % of control

COc1cc2c(cc1OC)CN(C)C(C)C2 (configuration not stated)
T/C (dose: 12.5 mg/kg/injection, schedule: Q01DX005 (ip), vehicle: saline): 101 % of control | T/C (dose: 25.0 mg/kg/injection, schedule: Q01DX005 (ip), vehicle: saline): 106 % of control | T/C (dose: 50.0 mg/kg/injection, schedule: Q01DX005 (ip), vehicle: saline): 109 % of control and 97 % of control

CC(C)C1(C(C)C)OCCO1
T/C [4]: 100 % of control | T/C (dose: 100.0 mg/kg/injection, schedule: Q01DX009 (ip), vehicle: saline): 109 % of control | T/C (dose: 200.0 mg/kg/injection, schedule: Q01DX009 (ip), vehicle: saline): 109 % of control

CCn1c2ccccc2c2cc(NC(=O)N(CCCl)N=O)ccc21
T/C (dose: 6.25 mg/kg/injection, schedule: Q01DX009 (ip), vehicle: saline with Tween-80): 119 % of control | T/C [5]: 122 % of control | T/C [6]: 189 % of control

O=C1C[N+]2(Cc3ccccc3)CCC1CC2
T/C [2]: 101 % of control | T/C [3]: 108 % of control | T/C [4]: 90 % of control

CN(N=O)C(=O)Nc1cc(=O)[nH]c(SCc2ccccc2)n1
T/C (dose: 12.5 mg/kg/injection, schedule: Q01DX005 (ip), vehicle: Klucel (hydroxypropylcellulose) (HPC)): 104 % of control | T/C (dose: 25.0 mg/kg/injection, schedule: Q01DX005 (ip), vehicle: Klucel (hydroxypropylcellulose) (HPC)): 114 % of control | T/C [7]: 124 % of control | T/C [8]: 160 % of control

CCOC(=O)c1c(C)c(C(=O)OCC)n(C)c1C=O
T/C [6]: 97 % of control | T/C (dose: 200.0 mg/kg/injection, schedule: Q01DX009 (ip), vehicle: saline with Tween-80): 97 % of control | T/C (dose: 400.0 mg/kg/injection, schedule: Q01DX009 (ip), vehicle: saline with Tween-80): 96 % of control

CCCCN1C(=O)CC(SC2CC(=O)N(CCCC)C2=O)C1=O (configuration not stated)
T/C [7]: 97 % of control | T/C [8]: 86 % of control | T/C (dose: 200.0 mg/kg/injection, schedule: Q01DX005 (ip), vehicle: Klucel (hydroxypropylcellulose) (HPC)): 103 % of control

C(=C\c1ccncc1)/c1ccncc1
T/C [5]: 90 % of control | T/C (dose: 25.0 mg/kg/injection, schedule: Q01DX009 (ip), vehicle: saline with Tween-80): 90 % of control | T/C (dose: 50.0 mg/kg/injection, schedule: Q01DX009 (ip), vehicle: saline with Tween-80): 101 % of control | T/C (dose: 100.0 mg/kg/injection, schedule: Q01DX009 (ip), vehicle: Klucel (hydroxypropylcellulose) (HPC)): 89 % of control | T/C [6]: 107 % of control | T/C (dose: 200.0 mg/kg/injection, schedule: Q01DX009 (ip), vehicle: Klucel (hydroxypropylcellulose) (HPC)): 92 % of control

COCCc1nnnn1C
T/C [9]: 102 % of control | T/C [10]: 98 % of control | T/C [11]: 114 % of control

CCCC(N(C)C)P(=O)(O)O (configuration not stated)
T/C (dose: 100.0 mg/kg/injection, schedule: Q04DX003 (ip), vehicle: saline): 105 % of control | T/C (dose: 200.0 mg/kg/injection, schedule: Q04DX003 (ip), vehicle: saline): 105 % of control | T/C (dose: 400.0 mg/kg/injection, schedule: Q04DX003 (ip), vehicle: saline): 100 % of control

O=C1C2CSCN2C(=O)C2CSCN12 (configuration not stated)
T/C (dose: 100.0 mg/kg/injection, schedule: Q01DX001 (ip), vehicle: Klucel (hydroxypropylcellulose) (HPC)): 102 % of control | T/C (dose: 200.0 mg/kg/injection, schedule: Q01DX001 (ip), vehicle: Klucel (hydroxypropylcellulose) (HPC)): 99 % of control | T/C (dose: 400.0 mg/kg/injection, schedule: Q01DX001 (ip), vehicle: Klucel (hydroxypropylcellulose) (HPC)): 105 % of control

CN1C(c2ccccc2)CC(=C(C#N)c2ccccc2)CC1c1ccccc1 (configuration not stated)
T/C (dose: 30.0 mg/kg/injection, schedule: Q01DX005 (ip), vehicle: Klucel (hydroxypropylcellulose) (HPC)): 103 % of control | T/C (dose: 60.0 mg/kg/injection, schedule: Q01DX005 (ip), vehicle: Klucel (hydroxypropylcellulose) (HPC)): 107 % of control | T/C (dose: 120.0 mg/kg/injection, schedule: Q01DX005 (ip), vehicle: Klucel (hydroxypropylcellulose) (HPC)): 93 % of control | T/C (dose: 240.0 mg/kg/injection, schedule: Q01DX005 (ip), vehicle: Klucel (hydroxypropylcellulose) (HPC)): 104 % of control

c1ccc2sc(NCCSSCCNc3nc4ccccc4s3)nc2c1
T/C (dose: 25.0 mg/kg/injection, schedule: Q01DX009 (ip), vehicle: other): 100 % of control | T/C (dose: 50.0 mg/kg/injection, schedule: Q01DX009 (ip), vehicle: other): 86 % of control and 92 % of control | T/C (dose: 100.0 mg/kg/injection, schedule: Q01DX009 (ip), vehicle: other): 90 % of control | T/C (dose: 200.0 mg/kg/injection, schedule: Q01DX009 (ip), vehicle: other): 90 % of control and 93 % of control

CCCCCCCCSC(SCCCCCCCC)C(O)C(O)C(O)CO (configuration not stated)
T/C [9]: 93 % of control | T/C [10]: 109 % of control

CCN(CC)c1ccc(/C=N\Nc2ccc([N+](=O)[O-])cn2)cc1
T/C [9]: 93 % of control | T/C [10]: 90 % of control | T/C [11]: 87 % of control
